US9006487B2, “Amine-containing lipids and uses thereof” (Massachusetts Institute of Technology, priority 2005, dated 2015)
Where “and” joins values, the source holds several entries; their conditions need not be identical. Equal entries are not always repeated.

Tested on: cos-7 cells
Assay: DNA transfection: luciferase expression relative to Lipofectamine 2000
Assay type: cell-based
Conditions: for Luciferase expression as a percentage of that achieved using Lipofectamine 2000: 300 ng Luciferase DNA per well
Procedure: 14,000 cos-7 cells (ATCC, Manassas, Va.) were seeded into each well of a solid white or clear 96 well plate (Corning-Costar, Kennebunk, Me.) and allowed to attached overnight in growth medium, composed of: 500 ml phenol red minus DMEM, 50 ml heat inactivated FBS, 5 ml penicillin/streptomycin (Invitrogen, Carlsbad, Calif.).
A small liquot of lipid was tranferred to an Eppendorf tube. Based on the mass of the lipid in the tube, sterile 25 mM sodium acetate buffer was added to each tube to yield a concentration of 60 mg/ml. The resulting mixture was vortexed for approximately 20 minutes until the lipid was fully dissolved. DNA was prepared based on 300 ng DNA per well of a 96-well plate. 291 μg of Lc DNA was dissolved in 9210 μl of 25 mM sodium acetate buffer. Aliquots of 30 μl of DNA solution were added to each well expect for the last column which was reserved for the Lipo2000 standard. For the last column of the plate, 61 μg of DNA was added to 1940 μl Optimem. 150 μl of media/Optimem was added to each well of plates. 50 μl of lipid solution was aliquoted into wells of robot plate. The following amounts were aliquoted to obtain the correct ratios of DNA to lipid:
In quadruplicate, 30 μl of lipid was aliquoted onto DNA in four rows for each ratio. For the Lipo2000 control (2.5 w/w ratio to DNA), 152.5 μg of Lipo sample was aliquoted into 1847.5 μl of Optimem. 30 μl of this solution was aliquoted onto DNA in the Optimem in the last columns of each plate. The plates were incubated for 15-20 minutes, and then 36.5 μl of lipid+DNA complexes was transferred into 150 μl of media/Optimem, then add to cells. The media was aspirated off the cells, and 105 μl of the lipid/DNA/media/Optimem solution was added to the cells. The luciferase assay was performed after 48 hours.
Luminescence was analyzed using bright-glo assay kits (Promega). Briefly, 100 μl of bright-glo solution was added to each well of the microtiter plate containing media and cells. Luminescence was measured using a Mithras Luminometer (Berthold, Oak Ridge, Tenn.). In some cases, a neutral density filter (Chroma, Brattleboro, Vt.) was used to prevent saturation of the luminometer. A standard curve for Luciferase was generated by titration of Luciferase enzyme (Promega) into growth media in white microtiter plates. Luciferase in ng per well are calculated for each of the lipids at 2.5 w/w, 5 w/w, 10 w/w, 15 w/w, 20 w/w, and 25 w/w lipid to DNA based on the standard curve.
The table below summarizes the data as a % of the luciferase activity obtained from the use of Lipofectamine 2000. The table indicates the best lipids for transfection.

[1] = lipid/DNA 10 w/w, luciferase assay after 48 hours
[2] = lipid/DNA 15 w/w, luciferase assay after 48 hours
[3] = lipid/DNA 2.5 w/w, luciferase assay after 48 hours
[4] = lipid/DNA 5 w/w, luciferase assay after 48 hours
[5] = lipid/DNA 20 w/w, luciferase assay after 48 hours
[6] = lipid/DNA 25 w/w, luciferase assay after 48 hours
[7] = lipid/DNA 2.5 w/w, 72 hours incubation before bright-glo
[8] = lipid/DNA 5 w/w, 72 hours incubation before bright-glo
[9] = lipid/DNA 10 w/w, 72 hours incubation before bright-glo
[10] = lipid/DNA 15 w/w, 72 hours incubation before bright-glo
[11] = lipid/DNA 20 w/w, 72 hours incubation before bright-glo
[12] = lipid/DNA 25 w/w, 72 hours incubation before bright-glo

CCCCCCCCCCCCOC(=O)CCN(CCCCO)CCC(=O)OCCCCCCCCCCCC [LD28]
Luciferase expression as a percentage of that achieved using Lipofectamine 2000 [1]: 1.7%
Luciferase expression as a percentage of that achieved using Lipofectamine 2000 [2]: 8.5%

CCCCCCCCCCCCCCOC(=O)CCN(CCOC)CCC(=O)OCCCCCCCCCCCCCC [LF10]
Luciferase expression as a percentage of that achieved using Lipofectamine 2000 [3]: 0.1%
Luciferase expression as a percentage of that achieved using Lipofectamine 2000 [4]: 0.1%
Luciferase expression as a percentage of that achieved using Lipofectamine 2000 [1]: 0.0%
Luciferase expression as a percentage of that achieved using Lipofectamine 2000 [2]: 0.0%
Luciferase expression as a percentage of that achieved using Lipofectamine 2000 [5]: 0.1%
Luciferase expression as a percentage of that achieved using Lipofectamine 2000 [6]: 0.1%

CCCCCCCCCCCCCCOC(=O)CCN(CCC(=O)OCCCCCCCCCCCCCC)CCC1CCCN1C (centres unmarked) [LF77]
Luciferase expression as a percentage of that achieved using Lipofectamine 2000 [3]: 3.7%
Luciferase expression as a percentage of that achieved using Lipofectamine 2000 [4]: 25.1%
Luciferase expression as a percentage of that achieved using Lipofectamine 2000 [1]: 28.2%
Luciferase expression as a percentage of that achieved using Lipofectamine 2000 [2]: 24.1%
Luciferase expression as a percentage of that achieved using Lipofectamine 2000 [5]: 17.0%
Luciferase expression as a percentage of that achieved using Lipofectamine 2000 [6]: 22.1%

CCCCCCCCCCOC(=O)CC[N+](C)(CCCOC)CCC(=O)OCCCCCCCCCC.[I-] [QB1]
Luciferase expression as a percentage of that achieved using Lipofectamine 2000 [3]: 0.4%
Luciferase expression as a percentage of that achieved using Lipofectamine 2000 [4]: 0.3%
Luciferase expression as a percentage of that achieved using Lipofectamine 2000 [1]: 0.4%
Luciferase expression as a percentage of that achieved using Lipofectamine 2000 [2]: 0.3%
Luciferase expression as a percentage of that achieved using Lipofectamine 2000 [5]: 0.4%
Luciferase expression as a percentage of that achieved using Lipofectamine 2000 [6]: 0.4%

CCCCCCCCCCCCOC(=O)CCN(CCCn1ccnc1)CCC(=O)OCCCCCCCCCCCC [LD93]
Luciferase expression as a percentage of that achieved using Lipofectamine 2000 [3]: 1.8%
Luciferase expression as a percentage of that achieved using Lipofectamine 2000 [4]: 4.2%
Luciferase expression as a percentage of that achieved using Lipofectamine 2000 [1]: 3.9%
Luciferase expression as a percentage of that achieved using Lipofectamine 2000 [2]: 24.6%
Luciferase expression as a percentage of that achieved using Lipofectamine 2000 [5]: 15.8%
Luciferase expression as a percentage of that achieved using Lipofectamine 2000 [6]: 10.8%

CCCCCCCCCCCCCCOC(=O)CC[N+](C)(CCC(=O)OCCCCCCCCCCCCCC)CCC1CCC[N+]1(C)C.[I-].[I-] (centres unmarked) [QF77]
Luciferase expression as a percentage of that achieved using Lipofectamine 2000 [3]: 0.4%
Luciferase expression as a percentage of that achieved using Lipofectamine 2000 [4]: 0.4%
Luciferase expression as a percentage of that achieved using Lipofectamine 2000 [1]: 0.7%
Luciferase expression as a percentage of that achieved using Lipofectamine 2000 [2]: 1.3%
Luciferase expression as a percentage of that achieved using Lipofectamine 2000 [5]: 2.7%
Luciferase expression as a percentage of that achieved using Lipofectamine 2000 [6]: 9.9%

CCCCCCCCCCCCCCCOC(=O)CCN(CCCn1ccnc1)CCC(=O)OCCCCCCCCCCCCCCC [LG93]
Luciferase expression as a percentage of that achieved using Lipofectamine 2000 [7]: 45.0%
Luciferase expression as a percentage of that achieved using Lipofectamine 2000 [3]: 3.6%
luciferase expression (second part of table, values relative to LIPO2000) [7]: 45.0
Luciferase expression as a percentage of that achieved using Lipofectamine 2000 [8]: 43.8%
Luciferase expression as a percentage of that achieved using Lipofectamine 2000 [4]: 9.2%
luciferase expression (second part of table, values relative to LIPO2000) [8]: 43.8
Luciferase expression as a percentage of that achieved using Lipofectamine 2000 [9]: 310.5%
Luciferase expression as a percentage of that achieved using Lipofectamine 2000 [1]: 19.8%
luciferase expression (second part of table, values relative to LIPO2000) [9]: 310.5
Luciferase expression as a percentage of that achieved using Lipofectamine 2000 [10]: 281.8%
Luciferase expression as a percentage of that achieved using Lipofectamine 2000 [2]: 37.3%
luciferase expression (second part of table, values relative to LIPO2000) [10]: 281.8
Luciferase expression as a percentage of that achieved using Lipofectamine 2000 [11]: 185.9%
Luciferase expression as a percentage of that achieved using Lipofectamine 2000 [5]: 24.0%
luciferase expression (second part of table, values relative to LIPO2000) [11]: 185.9
Luciferase expression as a percentage of that achieved using Lipofectamine 2000 [12]: 183.8%
Luciferase expression as a percentage of that achieved using Lipofectamine 2000 [6]: 24.6%
luciferase expression (second part of table, values relative to LIPO2000) [12]: 183.8

CCCCCCCCCCCCOC(=O)CCN(CCCN(C)C)CCC(=O)OCCCCCCCCCCCC [LD80]
Luciferase expression as a percentage of that achieved using Lipofectamine 2000 [3]: 0.1%
Luciferase expression as a percentage of that achieved using Lipofectamine 2000 [4]: 0.1%
Luciferase expression as a percentage of that achieved using Lipofectamine 2000 [1]: 3.7%
Luciferase expression as a percentage of that achieved using Lipofectamine 2000 [2]: 6.5%
Luciferase expression as a percentage of that achieved using Lipofectamine 2000 [5]: 7.1%
Luciferase expression as a percentage of that achieved using Lipofectamine 2000 [6]: 2.1%

CCCCCCCCCCCCCCOC(=O)CCN(CCC(=O)OCCCCCCCCCCCCCC)CCN(CCC(=O)OCCCCCCCCCCCCCC)CCC(=O)OCCCCCCCCCCCCCC [LF99]
Luciferase expression as a percentage of that achieved using Lipofectamine 2000 [3]: 32.2%
luciferase expression (second part of table, values relative to LIPO2000) (lipid/DNA 2.5 w/w, 300 ng of DNA per well): 32.2
Luciferase expression as a percentage of that achieved using Lipofectamine 2000 [4]: 49.8%
luciferase expression (second part of table, values relative to LIPO2000) (lipid/DNA 5 w/w, 300 ng of DNA per well): 49.8
Luciferase expression as a percentage of that achieved using Lipofectamine 2000 [1]: 26.5%
luciferase expression (second part of table, values relative to LIPO2000) (lipid/DNA 10 w/w, 300 ng of DNA per well): 26.5
Luciferase expression as a percentage of that achieved using Lipofectamine 2000 [2]: 10.7%
luciferase expression (second part of table, values relative to LIPO2000) (lipid/DNA 15 w/w, 300 ng of DNA per well): 10.7
Luciferase expression as a percentage of that achieved using Lipofectamine 2000 [5]: 6.0%
luciferase expression (second part of table, values relative to LIPO2000) (lipid/DNA 20 w/w, 300 ng of DNA per well): 6.0
Luciferase expression as a percentage of that achieved using Lipofectamine 2000 [6]: 6.2%
luciferase expression (second part of table, values relative to LIPO2000) (lipid/DNA 25 w/w, 300 ng of DNA per well): 6.2

CCCCCCCCCCCCCCCOC(=O)CCN(CCC(=O)OCCCCCCCCCCCCCCC)CCN1CCOCC1 [LG90]
Luciferase expression as a percentage of that achieved using Lipofectamine 2000 [3]: 0.1% and 0.6%
Luciferase expression as a percentage of that achieved using Lipofectamine 2000 [4]: 0.1% and 0.6%
Luciferase expression as a percentage of that achieved using Lipofectamine 2000 [1]: 0.0% and 0.4%
Luciferase expression as a percentage of that achieved using Lipofectamine 2000 [2]: 0.0% and 0.4%
Luciferase expression as a percentage of that achieved using Lipofectamine 2000 [5]: 0.1% and 0.4%
Luciferase expression as a percentage of that achieved using Lipofectamine 2000 [6]: 0.0% and 0.4%

CCCCCCCCCCCCCCCOC(=O)CC[N+](C)(CCC(=O)OCCCCCCCCCCCCCCC)CCC1OCCO1.[I-] [QG6]
Luciferase expression as a percentage of that achieved using Lipofectamine 2000 [3]: 0.0%
Luciferase expression as a percentage of that achieved using Lipofectamine 2000 [4]: 0.0%
Luciferase expression as a percentage of that achieved using Lipofectamine 2000 [1]: 0.0%
Luciferase expression as a percentage of that achieved using Lipofectamine 2000 [2]: 0.0%
Luciferase expression as a percentage of that achieved using Lipofectamine 2000 [5]: 0.0%
Luciferase expression as a percentage of that achieved using Lipofectamine 2000 [6]: 0.0%
